Measured values published in US6448405B1, “Steroid receptor modulator compounds and methods” (Ligand Pharmaceuticals Incorporated, priority 1994, dated 2002).
Read-outs that look alike come from different tables or passages of the source.

What was measured:
[1] = molecular target: T1, human progesterone receptor A form (PR-A) (Homo sapiens, UniProt P06401); assay: PR binding assay, baculovirus extract, [3H] progesterone
T1 sequence (P06401 1-769 isoform P06401-2): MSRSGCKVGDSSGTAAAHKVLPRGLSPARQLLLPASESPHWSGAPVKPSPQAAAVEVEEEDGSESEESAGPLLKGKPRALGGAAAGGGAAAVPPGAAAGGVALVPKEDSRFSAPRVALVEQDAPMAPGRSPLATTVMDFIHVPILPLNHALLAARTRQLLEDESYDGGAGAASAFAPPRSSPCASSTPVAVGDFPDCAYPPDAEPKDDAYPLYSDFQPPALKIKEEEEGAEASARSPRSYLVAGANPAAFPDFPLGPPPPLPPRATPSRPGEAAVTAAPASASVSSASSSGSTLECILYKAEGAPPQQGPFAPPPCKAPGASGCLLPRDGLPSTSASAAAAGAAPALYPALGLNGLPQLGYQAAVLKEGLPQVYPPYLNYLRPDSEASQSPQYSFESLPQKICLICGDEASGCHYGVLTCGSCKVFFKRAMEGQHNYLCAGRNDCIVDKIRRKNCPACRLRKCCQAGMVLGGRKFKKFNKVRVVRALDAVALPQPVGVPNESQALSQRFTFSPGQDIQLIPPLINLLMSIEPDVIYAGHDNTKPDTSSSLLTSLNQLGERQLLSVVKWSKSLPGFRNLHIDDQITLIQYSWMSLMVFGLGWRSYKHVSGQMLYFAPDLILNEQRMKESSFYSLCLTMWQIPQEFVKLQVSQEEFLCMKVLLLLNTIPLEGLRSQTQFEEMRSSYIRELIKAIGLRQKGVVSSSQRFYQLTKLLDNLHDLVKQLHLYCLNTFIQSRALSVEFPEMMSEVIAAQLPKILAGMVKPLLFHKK

human PR-B = molecular target: T2, human PR-B (Homo sapiens, UniProt P06401); assay: Co-transfection assay, PR agonist and antagonist activity, CV-1 cells; assay type: cell-based; details: for EC50: agonist mode, read-out: PR Agonist CV-1 Cells Potency;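 as to all read-outs here: luciferase reporter driven by a hormone response element, co-transfected with human PR-B into CV-1 monkey kidney cells, agonists raise and antagonists lower the reporter signal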
T2 construct: expressed in transfected cells; host or cells: CV-1 cells (African green monkey kidney fibroblasts), transient transfection
T2 sequence (P06401 1-933): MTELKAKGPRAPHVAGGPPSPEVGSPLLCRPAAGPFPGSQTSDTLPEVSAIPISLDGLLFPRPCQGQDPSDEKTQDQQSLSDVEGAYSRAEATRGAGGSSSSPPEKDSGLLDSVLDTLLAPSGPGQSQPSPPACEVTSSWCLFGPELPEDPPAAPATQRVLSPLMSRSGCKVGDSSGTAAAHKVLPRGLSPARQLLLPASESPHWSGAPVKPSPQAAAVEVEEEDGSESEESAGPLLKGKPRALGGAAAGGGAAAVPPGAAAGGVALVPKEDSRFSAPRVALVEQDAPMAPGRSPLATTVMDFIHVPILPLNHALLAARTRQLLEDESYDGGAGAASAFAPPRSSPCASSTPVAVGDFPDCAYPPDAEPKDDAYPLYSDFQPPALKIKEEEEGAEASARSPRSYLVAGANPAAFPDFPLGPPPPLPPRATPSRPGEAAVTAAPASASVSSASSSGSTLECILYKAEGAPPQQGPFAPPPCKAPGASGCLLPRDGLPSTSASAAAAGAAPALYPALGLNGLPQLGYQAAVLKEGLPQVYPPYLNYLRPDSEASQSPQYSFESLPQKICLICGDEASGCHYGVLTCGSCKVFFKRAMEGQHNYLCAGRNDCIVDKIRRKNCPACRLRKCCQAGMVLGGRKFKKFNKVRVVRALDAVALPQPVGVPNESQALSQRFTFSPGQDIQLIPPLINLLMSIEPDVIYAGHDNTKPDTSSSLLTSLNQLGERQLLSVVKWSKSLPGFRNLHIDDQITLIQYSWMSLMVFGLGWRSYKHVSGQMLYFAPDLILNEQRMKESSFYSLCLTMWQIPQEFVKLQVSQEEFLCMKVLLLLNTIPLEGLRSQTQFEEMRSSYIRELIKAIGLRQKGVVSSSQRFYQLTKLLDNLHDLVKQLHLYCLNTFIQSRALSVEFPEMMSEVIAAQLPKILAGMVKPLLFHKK

[2] = read-out: PR Antagonist CV-1 Cells Potency

Compound	Ki ([1]; read-out: PR Binding Ki)	PR Agonist CV-1 Cells Efficacy (%) (human PR-B)	PR Antagonist CV-1 Cells Efficacy (%) (human PR-B)	EC50 (human PR-B)	IC50 (human PR-B; [2])	Ki [1]	IC50 (human PR-B)	Ki ([1]; competition with [3H] progesterone, 4° C., 16 hours, read-out: PR Binding Ki)
CC1=CC(C)(C)Nc2ccc(-c3nn(C)cc3Br)cc21 [Compound 104, 6-(4-Bromo-1-methylpyrazol-3-yl)-1,2-dihydro-2,2,4-trimethylquinoline]	82 nM	39%	71%	2750 nM	120 nM			
CC1=CC(C)(C)Nc2ccc(-c3cccc(Cl)c3Cl)cc21 [Compound 109, 6-(2,3-Dichlorophenyl)-1,2-dihydro-2,2,4-trimethylquinoline]	23 nM	na (na = not active (i.e. efficacy or <20 and potency of >10,000))	87%	> 10000 nM	138 nM			
CC1=CC(C)(C)Nc2ccc3c(c21)/C(=C/c1ccccc1)Oc1ccccc1-3 [Compound 220, (Z)-5-Benzylidene-1,2-dihydro-2,2,4-trimethyl-5H-chromeno[3,4-f]quinoline]			na (key: na = not active (i.e. efficacy or <20 and potency of >10,000))	33 nM		1 nM	> 10000 nM	
CC1=CC(C)(C)Nc2ccc3c(c21)/C(=C/c1ccc(F)cc1)Oc1ccccc1-3 [Compound 221, (Z)-5-(4-Fluorobenzylidene)-1,2-dihydro-2,2,4-trimethyl-5H-chromeno[3,4-f]quinoline]			na (key: na = not active (i.e. efficacy or <20 and potency of >10,000))	117 nM		4 nM	> 10000 nM	
CC1=CC(C)(C)Nc2ccc3c(c21)/C(=C/c1ccccc1F)Oc1ccccc1-3 [Compound 228, (Z)-5-(2-Fluorobenzylidene)-1,2-dihydro-2,2,4-trimethyl-5H-chromeno[3,4-f]quinoline]			na (key: na = not active (i.e. efficacy or <20 and potency of >10,000))	40 nM		3 nM	> 10000 nM	
CC1C(=O)C(C)(C)Nc2ccc(-c3cc(F)cc(C#N)c3)cc21 (stereo not shown) [Compound 286, 6-(3-Cyano-5-Fluorophenyl)-1,2-dihydro-2,2,4-trimethyl-3-quinolone]	61 nM	na (na = not active (i.e. efficacy or <20 and potency of >10,000))	84%	> 10000 nM	155 nM			
CC1=CC(C)(C)Nc2c(F)cc(-c3cccc([N+](=O)[O-])c3)cc21 [Compound 291, 8-Fluoro-1,2-dihydro-2,2,4-trimethyl-6-(3-nitrophenyl)quinoline]	4 nM	na (na = not active (i.e. efficacy or <20 and potency of >10,000))	79%	> 10000 nM	46 nM			
CC1=CC(C)(C)Nc2ccc(-c3cccc([N+](=O)[O-])c3)c(Cl)c21 [Compound 310, 5-Chloro-1,2-dihydro-2,2,4-trimethyl-6-(3-nitrophenyl)quinoline]	7 nM	na (na = not active (i.e. efficacy or <20 and potency of >10,000))	70%	> 10000 nM	260 nM			
CC1(C)C=Cc2c(ccc3c2c(=O)oc2ccc(Cl)cc23)N1 [Compound 313, 9-Chloro-1,2-dihydro-2,2-dimethyl-5-coumarino[3,4-f]quinoline]	87 nM			300 nM	140 nM			
CC1=CC(C)(C)Nc2ccc3c(c21)COc1c(Cl)cccc1-3 [Compound 331, (R/S)-7-Chloro-1,2-dihydro-2,2,4-trimethyl-5H-chromeno[3,4-f]quinoline]		na (na = not active (i.e. efficacy or <20 and potency of >10,000))	88%	> 10000 nM	210 nM			273 nM
CC1(C)C=Cc2c(ccc3c2/C(=C/c2ccccc2)Oc2ccc(Cl)cc2-3)N1 [Compound 368, (Z)-5-Benzylidene-9-chloro-1,2-dihydro-2,2-dimethyl-5H-chromeno[3,4-f]quinoline]	4 nM	183%	na (na = not active (i.e. efficacy or <20 and potency of >10,000))	43 nM	> 10000 nM			
CC1=CC(C)(C)Nc2cc(C)c3c(c21)/C(=C/c1ccccc1)Oc1ccc(F)cc1-3 [Compound 377, (Z)-5-Benzylidene-9-Fluoro-1,2-dihydro-2,2,4,11-tetramethyl-5H-chromeno[3,4-f]quinoline]	20 nM	101%	na (na = not active (i.e. efficacy or <20 and potency of >10,000))	550 nM	> 10000 nM			
CC1=CC(C)(C)Nc2ccc(-c3csc(C#N)c3)cc21 [Compound 452, 6-(5-Cyano-3-thienyl)-1,2-dihydro-2,2,4-trimethylquinoline]				2400 nM		17 nM	24 nM	
